Experimental data from publication PMC8016998, “Identification of potential therapeutic antimicrobial peptides against Acinetobacter baumannii in a mouse model of pneumonia” (Scientific Reports, 2021).
Values after ≈ are worked out from the molar mass of the structure shown. Like-named read-outs stand apart in the source and are kept apart here. No end group written: not given here.

Columns and labels:
[1] = system: Acinetobacter baumannii 17,978; assay type: cell-based;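 further: CLSI broth microdilution in 96-well polypropylene plates, MBC taken as lowest concentration giving no growth when clear wells were subcultured on LB agar for 24 h at 37 °C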
[2] = system: Acinetobacter baumannii 19,606; assay type: cell-based
Method: (§1) MBC were determined by extending the MIC procedure in sterilized 96-well polypropylene microtiter plates according to the broth microdilution guidelines of the Clinical and Laboratory Standards Institute with some modification[47]. […] In addition, 10 µL was drawn from each well with no visible turbidity onto LB agar plates and incubated for 24 h at 37 °C. The lowest concentration showing no visible growth on agar subculture was used as the MBC value. All experiments were performed in triplicate.

MDRAB clinical strains = assay type: cell-based, Acinetobacter baumannii
Method: as §1

[3] = system: MDRAB clinical strain J49; assay type: cell-based, Acinetobacter baumannii
MDRAB clinical strain K2 = assay type: cell-based, Acinetobacter baumannii
[4] = system: MDRAB clinical strain Y92; assay type: cell-based, Acinetobacter baumannii
[5] = system: MDRAB clinical strain W11; assay type: cell-based, Acinetobacter baumannii
Method: as §1

[6] = system: MDRAB clinical strain U80; assay type: cell-based, Acinetobacter baumannii
Method: as §1

[7] = system: MDRAB clinical strain U95; assay type: cell-based, Acinetobacter baumannii
[8] = system: MDRAB clinical strain O59; assay type: cell-based, Acinetobacter baumannii
[9] = system: MDRAB clinical strain D29; assay type: cell-based, Acinetobacter baumannii
[10] = system: MDRAB clinical strain L87; assay type: cell-based, Acinetobacter baumannii
[11] = system: MDRAB clinical strain AO80; assay type: cell-based, Acinetobacter baumannii
Method: as §1

[12] = system: MDRAB clinical strain AS40; assay type: cell-based, Acinetobacter baumannii
Method: as §1

[13] = system: MDRAB clinical strain AK29; assay type: cell-based, Acinetobacter baumannii
Method: as §1

[14] = system: MDRAB clinical strain AK61; assay type: cell-based, Acinetobacter baumannii
Method: as §1

[15] = system: MDRAB clinical strain AE5; assay type: cell-based, Acinetobacter baumannii
Method: as §1

[16] = system: MDRAB clinical strain AE6; assay type: cell-based, Acinetobacter baumannii
Method: as §1

[17] = system: MDRAB clinical strain AF11; assay type: cell-based, Acinetobacter baumannii
Method: as §1

[18] = system: MDRAB clinical strain AF12; assay type: cell-based, Acinetobacter baumannii
Method: as §1

[19] = system: MDRAB clinical strain AF93; assay type: cell-based, Acinetobacter baumannii
Method: as §1

[20] = system: MDRAB clinical strain AG51; assay type: cell-based, Acinetobacter baumannii
[21] = system: MDRAB clinical strain AN10; assay type: cell-based, Acinetobacter baumannii
[22] = system: MDRAB clinical strain AL87; assay type: cell-based, Acinetobacter baumannii
[23] = system: MDRAB clinical strain AZ93; assay type: cell-based, Acinetobacter baumannii
Method: as §1

[24] = 10 µL from wells without turbidity onto LB agar, 24 h at 37 °C, triplicate

## CC[C@H](C)[C@H](NC(=O)CNC(=O)[C@@H](NC(=O)[C@H](CCCCN)NC(=O)[C@H](CCCCN)NC(=O)[C@H](Cc1ccccc1)NC(=O)[C@H](CC(C)C)NC(=O)[C@H](CCCCN)NC(=O)[C@H](Cc1c[nH]c2ccccc12)NC(=O)[C@@H](N)CCCCN)[C@@H](C)CC)C(=O)NCC(=O)N[C@@H](C)C(=O)N[C@H](C(=O)N[C@@H](CC(C)C)C(=O)N[C@@H](CCCCN)C(=O)N[C@H](C(=O)N[C@@H](CC(C)C)C(=O)N[C@H](C(=O)N[C@H](C(=O)NCC(N)=O)[C@@H](C)O)[C@@H](C)O)C(C)C)C(C)C [CAME]
[1]; [24]
  MBC: 32 µg/mL (≈ 14.5 µM)
[1]; broth microdilution (CLSI, modified), LB medium, 5 × 10^5 CFU/mL, 24 h at 37 °C, lowest concentration with no visible growth, triplicate
  MIC: 32 µg/mL (≈ 14.5 µM)
[2]; [24]
  MBC: 32 µg/mL (≈ 14.5 µM)
[2]; broth microdilution (CLSI, modified), LB medium, 5 × 10^5 CFU/mL, 24 h at 37 °C, triplicate
  MIC: 32 µg/mL (≈ 14.5 µM)
MDRAB clinical strains; range over MDRAB clinical strains (details in Supplementary Table 2), broth microdilution, LB, 24 h 37 °C
  MIC: 8 to 32 µg/mL
MDRAB clinical strains; range over MDRAB clinical strains (details in Supplementary Table 2), subculture on LB agar, 24 h 37 °C
  MBC: 8 to 64 µg/mL
[3]; strain J49, broth microdilution, LB, 24 h 37 °C
  MIC: 16 µg/mL (≈ 7.27 µM)
[3]; strain J49, subculture on LB agar, 24 h 37 °C
  MBC: 32 µg/mL (≈ 14.5 µM)
MDRAB clinical strain K2; strain K2, broth microdilution, LB, 24 h 37 °C
  MIC: 8 µg/mL (≈ 3.64 µM)
MDRAB clinical strain K2; strain K2, subculture on LB agar, 24 h 37 °C
  MBC: 16 µg/mL (≈ 7.27 µM)
[4]; strain Y92, broth microdilution, LB, 24 h 37 °C
  MIC: 32 µg/mL (≈ 14.5 µM)
[4]; strain Y92, subculture on LB agar, 24 h 37 °C
  MBC: 32 µg/mL (≈ 14.5 µM)
[5]; strain W11, broth microdilution, LB, 24 h 37 °C
  MIC: 16 µg/mL (≈ 7.27 µM)
[5]; strain W11, subculture on LB agar, 24 h 37 °C
  MBC: 32 µg/mL (≈ 14.5 µM)
[6]; strain U80, broth microdilution, LB, 24 h 37 °C
  MIC: 16 µg/mL (≈ 7.27 µM)
[6]; strain U80, subculture on LB agar, 24 h 37 °C
  MBC: 32 µg/mL (≈ 14.5 µM)
[7]; strain U95, broth microdilution, LB, 24 h 37 °C
  MIC: 32 µg/mL (≈ 14.5 µM)
[7]; strain U95, subculture on LB agar, 24 h 37 °C
  MBC: 64 µg/mL (≈ 29.1 µM)
[8]; strain O59, broth microdilution, LB, 24 h 37 °C
  MIC: 32 µg/mL (≈ 14.5 µM)
[8]; strain O59, subculture on LB agar, 24 h 37 °C
  MBC: 64 µg/mL (≈ 29.1 µM)
[9]; strain D29, broth microdilution, LB, 24 h 37 °C
  MIC: 32 µg/mL (≈ 14.5 µM)
[9]; strain D29, subculture on LB agar, 24 h 37 °C
  MBC: 32 µg/mL (≈ 14.5 µM)
[10]; strain L87, broth microdilution, LB, 24 h 37 °C
  MIC: 32 µg/mL (≈ 14.5 µM)
[10]; strain L87, subculture on LB agar, 24 h 37 °C
  MBC: 64 µg/mL (≈ 29.1 µM)
[11]; strain AO80, broth microdilution, LB, 24 h 37 °C
  MIC: 8 µg/mL (≈ 3.64 µM)
[11]; strain AO80, subculture on LB agar, 24 h 37 °C
  MBC: 16 µg/mL (≈ 7.27 µM)
[12]; strain AS40, broth microdilution, LB, 24 h 37 °C
  MIC: 8 µg/mL (≈ 3.64 µM)
[12]; strain AS40, subculture on LB agar, 24 h 37 °C
  MBC: 8 µg/mL (≈ 3.64 µM)
[13]; strain AK29, broth microdilution, LB, 24 h 37 °C
  MIC: 8 µg/mL (≈ 3.64 µM)
[13]; strain AK29, subculture on LB agar, 24 h 37 °C
  MBC: 16 µg/mL (≈ 7.27 µM)
[14]; strain AK61, broth microdilution, LB, 24 h 37 °C
  MIC: 8 µg/mL (≈ 3.64 µM)
[14]; strain AK61, subculture on LB agar, 24 h 37 °C
  MBC: 16 µg/mL (≈ 7.27 µM)
[15]; strain AE5, broth microdilution, LB, 24 h 37 °C
  MIC: 32 µg/mL (≈ 14.5 µM)
[15]; strain AE5, subculture on LB agar, 24 h 37 °C
  MBC: 32 µg/mL (≈ 14.5 µM)
[16]; strain AE6, broth microdilution, LB, 24 h 37 °C
  MIC: 32 µg/mL (≈ 14.5 µM)
[16]; strain AE6, subculture on LB agar, 24 h 37 °C
  MBC: 32 µg/mL (≈ 14.5 µM)
[17]; strain AF11, broth microdilution, LB, 24 h 37 °C
  MIC: 16 µg/mL (≈ 7.27 µM)
[17]; strain AF11, subculture on LB agar, 24 h 37 °C
  MBC: 32 µg/mL (≈ 14.5 µM)
[18]; strain AF12, broth microdilution, LB, 24 h 37 °C
  MIC: 16 µg/mL (≈ 7.27 µM)
[18]; strain AF12, subculture on LB agar, 24 h 37 °C
  MBC: 16 µg/mL (≈ 7.27 µM)
[19]; strain AF93, broth microdilution, LB, 24 h 37 °C
  MIC: 32 µg/mL (≈ 14.5 µM)
[19]; strain AF93, subculture on LB agar, 24 h 37 °C
  MBC: 32 µg/mL (≈ 14.5 µM)
[20]; strain AG51, broth microdilution, LB, 24 h 37 °C
  MIC: 16 µg/mL (≈ 7.27 µM)
[20]; strain AG51, subculture on LB agar, 24 h 37 °C
  MBC: 32 µg/mL (≈ 14.5 µM)
[21]; strain AN10, broth microdilution, LB, 24 h 37 °C
  MIC: 16 µg/mL (≈ 7.27 µM)
[21]; strain AN10, subculture on LB agar, 24 h 37 °C
  MBC: 32 µg/mL (≈ 14.5 µM)
[22]; strain AL87, broth microdilution, LB, 24 h 37 °C
  MIC: 32 µg/mL (≈ 14.5 µM)
[22]; strain AL87, subculture on LB agar, 24 h 37 °C
  MBC: 32 µg/mL (≈ 14.5 µM)
[23]; strain AZ93, broth microdilution, LB, 24 h 37 °C
  MIC: 8 µg/mL (≈ 3.64 µM)
[23]; strain AZ93, subculture on LB agar, 24 h 37 °C
  MBC: 8 µg/mL (≈ 3.64 µM)

## GAKYAKIIYNYLKKIANALW [GW-A2]
[1]; 17,978, 24 h
  MBC: 32 µg/mL
  MIC: 32 µg/mL
[2]; 19,606, 24 h
  MBC: 8 µg/mL
  MIC: 8 µg/mL
MDRAB clinical strains; 24 h
  MBC: 8 to 64 µg/mL
  MIC: 8 to 32 µg/mL
[3]; 24 h
  MBC: 16 µg/mL
  MIC: 16 µg/mL
MDRAB clinical strain K2; 24 h
  MBC: 64 µg/mL
  MIC: 32 µg/mL
[4]; 24 h
  MBC: 16 µg/mL
  MIC: 16 µg/mL
[5]; 24 h
  MBC: 16 µg/mL
  MIC: 16 µg/mL
[6]; 24 h
  MBC: 16 µg/mL
  MIC: 16 µg/mL
[7]; 24 h
  MBC: 64 µg/mL
  MIC: 32 µg/mL
[8]; 24 h
  MBC: 32 µg/mL
  MIC: 32 µg/mL
[9]; 24 h
  MBC: 16 µg/mL
  MIC: 16 µg/mL
[10]; 24 h
  MBC: 16 µg/mL
  MIC: 16 µg/mL
[11]; 24 h
  MBC: 16 µg/mL
  MIC: 8 µg/mL
[12]; 24 h
  MBC: 16 µg/mL
  MIC: 8 µg/mL
[13]; 24 h
  MBC: 8 µg/mL
  MIC: 8 µg/mL
[14]; 24 h
  MBC: 8 µg/mL
  MIC: 8 µg/mL
[15]; 24 h
  MBC: 16 µg/mL
  MIC: 16 µg/mL
[16]; 24 h
  MBC: 32 µg/mL
  MIC: 16 µg/mL
[17]; 24 h
  MBC: 32 µg/mL
  MIC: 16 µg/mL
[18]; 24 h
  MBC: 8 µg/mL
  MIC: 8 µg/mL
[19]; 24 h
  MBC: 16 µg/mL
  MIC: 16 µg/mL
[20]; 24 h
  MBC: 8 µg/mL
  MIC: 8 µg/mL
[21]; 24 h
  MBC: 8 µg/mL
  MIC: 8 µg/mL
[22]; 24 h
  MBC: 8 µg/mL
  MIC: 8 µg/mL
[23]; 24 h
  MBC: 16 µg/mL
  MIC: 8 µg/mL

## GIKIAKKAITIAKKIAKIYW [GW-Q6]
[1]; 17,978, 24 h
  MBC: 16 µg/mL
  MIC: 16 µg/mL
[2]; 19,606, 24 h
  MBC: 16 µg/mL
  MIC: 16 µg/mL
MDRAB clinical strains; 24 h
  MBC: 8 to 32 µg/mL
  MIC: 8 to 16 µg/mL
[3]; 24 h
  MBC: 16 µg/mL
  MIC: 16 µg/mL
MDRAB clinical strain K2; 24 h
  MBC: 8 µg/mL
  MIC: 8 µg/mL
[4]; 24 h
  MBC: 8 µg/mL
  MIC: 8 µg/mL
[5]; 24 h
  MBC: 16 µg/mL
  MIC: 16 µg/mL
[6]; 24 h
  MBC: 16 µg/mL
  MIC: 16 µg/mL
[7]; 24 h
  MBC: 32 µg/mL
  MIC: 16 µg/mL
[8]; 24 h
  MBC: 32 µg/mL
  MIC: 16 µg/mL
[9]; 24 h
  MBC: 32 µg/mL
  MIC: 16 µg/mL
[10]; 24 h
  MBC: 16 µg/mL
  MIC: 16 µg/mL
[11]; 24 h
  MBC: 16 µg/mL
  MIC: 16 µg/mL
[12]; 24 h
  MBC: 16 µg/mL
  MIC: 16 µg/mL
[13]; 24 h
  MBC: 8 µg/mL
  MIC: 8 µg/mL
[14]; 24 h
  MBC: 16 µg/mL
  MIC: 16 µg/mL
[15]; 24 h
  MBC: 8 µg/mL
  MIC: 8 µg/mL
[16]; 24 h
  MBC: 8 µg/mL
  MIC: 8 µg/mL
[17]; 24 h
  MBC: 8 µg/mL
  MIC: 8 µg/mL
[18]; 24 h
  MBC: 8 µg/mL
  MIC: 8 µg/mL
[19]; 24 h
  MBC: 16 µg/mL
  MIC: 8 µg/mL
[20]; 24 h
  MBC: 8 µg/mL
  MIC: 8 µg/mL
[21]; 24 h
  MBC: 8 µg/mL
  MIC: 8 µg/mL
[22]; 24 h
  MBC: 8 µg/mL
  MIC: 8 µg/mL
[23]; 24 h
  MBC: 8 µg/mL
  MIC: 8 µg/mL
